Reference: patent US9981960B2, “Pyrrolidine compound and application as melanocortin receptor agonist” (MITSUBISHI TANABE PHARMA CORPORATION, priority 2014, dated 2018)

Key:
Human MC1R = molecular target: T1, Human MC1R (Homo sapiens, UniProt Q01726); experiment: MCR agonist measurement (cAMP measurement), human MC1R agonist activity in human melanoma cell line HBL; assay type: cell-based; details: HBL cells; for EC50: 37° C. for 30 minutes, intracellular cAMP by fluorescence method; for Human MC1R IA %: Intrinsic Activity, vehicle cAMP = 0%, αMSH at 10^-6 M = 100%
T1 construct: endogenous in cells; host or cells: human melanoma cell line HBL
T1 sequence (Q01726 whole entry): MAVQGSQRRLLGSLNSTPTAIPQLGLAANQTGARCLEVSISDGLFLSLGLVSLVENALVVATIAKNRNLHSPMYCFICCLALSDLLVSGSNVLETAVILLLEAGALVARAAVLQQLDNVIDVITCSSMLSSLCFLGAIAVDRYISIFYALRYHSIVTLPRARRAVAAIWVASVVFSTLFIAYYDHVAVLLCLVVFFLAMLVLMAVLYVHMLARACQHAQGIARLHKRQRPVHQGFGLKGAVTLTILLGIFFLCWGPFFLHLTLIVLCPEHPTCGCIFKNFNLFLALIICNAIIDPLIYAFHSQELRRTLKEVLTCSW

human MC4R = human MC4R (Homo sapiens, UniProt P32245); experiment: human MC4R agonist activity; assay type: cell-based
Chain of human MC4R (P32245 whole entry): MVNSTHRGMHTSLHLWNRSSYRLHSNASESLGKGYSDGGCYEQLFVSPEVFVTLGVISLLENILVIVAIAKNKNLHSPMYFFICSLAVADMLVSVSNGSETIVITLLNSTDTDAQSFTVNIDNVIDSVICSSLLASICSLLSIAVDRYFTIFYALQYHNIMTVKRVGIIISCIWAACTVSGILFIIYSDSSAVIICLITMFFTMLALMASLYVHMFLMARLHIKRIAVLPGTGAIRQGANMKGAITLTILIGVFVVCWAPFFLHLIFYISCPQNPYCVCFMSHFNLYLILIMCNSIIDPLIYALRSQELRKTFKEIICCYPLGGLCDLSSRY

Row | SMILES | EC50 (Human MC1R) | Human MC1R IA % (Human MC1R) | EC50 (human MC4R)
1 | COC[C@@H]1C[C@@H](c2ccc(F)cc2N2CCC(C(=O)O)CC2)CN1C(=O)[C@]1(F)CN([C@H]2CC[C@H](OC)CC2)C[C@H]1c1ccc(OC)cc1.Cl.Cl [Example 147, 1-{5-fluoro-2-[(3S,5S)-1-{[(3R,4R)-3-fluoro-1-(trans-4-methoxycyclohexyl)-4-(4-methoxyphenyl)pyrrolidin-3-yl]carbonyl}-5-(methoxymethyl)pyrrolidin-3-yl]phenyl}piperidine-4-carboxylic acid dihydrochloride] | 1.7 nM | 102% | 341 nM
2 | COc1ccc([C@@H]2CN(C(C)(C)C)C[C@@]2(F)C(=O)N2CCC(c3ccc(Cl)cc3N3CCC(C(=O)O)CC3)CC2)cc1 [Example 195] | 40 nM | 87% | –
3 | COc1ccc([C@@H]2CN(C3CCCC3)C[C@@]2(F)C(=O)N2CCCC(c3ccc(C(F)(F)F)cc3N3CCC(C(=O)O)CC3)C2)cc1 (single isomer, unassigned) [Example 292] | 217 nM | 25% | –
4 | COc1ccc([C@@H]2CN(C(C)(C)C)C[C@@]2(F)C(=O)N2CCC(c3ccc(C(F)(F)F)cc3N3C[C@@H]4[C@H](C3)[C@H]4C(=O)O)CC2)cc1 [Example 94] | 49 nM | 83% | –
5 | COC[C@H]1CN(C(=O)[C@]2(F)CN(c3ccnc(C)c3)C[C@H]2c2ccc(OC)cc2)C[C@@H]1c1ccc(C(F)(F)F)cc1N1CCC(C(=O)O)CC1 [Example 59] | 1.2 nM | 98% | –
6 | COc1ccc([C@@H]2CN(C(C)(C)C)C[C@@]2(F)C(=O)N2C[C@H](CO)[C@@H](c3ccc(C(F)(F)F)cc3N3CCC(C(=O)O)CC3)C2)cc1.Cl.Cl [Example 224, 1-{2-[(3S,4R)-1-{[(3R,4R)-1-tert-butyl-3-fluoro-4-(4-methoxyphenyl)pyrrolidin-3-yl]carbonyl}-4-(hydroxymethyl)pyrrolidin-3-yl]-5-(trifluoromethyl)phenyl}piperidine-4-carboxylic acid dihydrochloride] | 11 nM | 109% | –
7 | COc1ccc([C@@H]2CN([C@H]3CC[C@H](OC)CC3)C[C@@]2(F)C(=O)N2CC[C@@H](c3ccc(C(F)(F)F)cc3N3CCC(C(=O)O)CC3)C2)cc1 [Example 213] | 0.89 nM | 88% | –
8 | COc1ccc([C@@H]2CN(C3CCCC3)C[C@@]2(F)C(=O)N2CCCC(c3ccc(C(F)(F)F)cc3N3CCC(C(=O)O)CC3)C2)cc1 (single isomer, unassigned) [Example 291] | 734 nM | 67% | –
9 | COc1ccc([C@@H]2CN(C3CCN(C(CF)CF)CC3)C[C@@]2(F)C(=O)N2CC[C@@H](c3ccc(F)cc3N3CCC(C(=O)O)CC3)C2)cc1 [Example 220] | 2.8 nM | 75% | –
10 | COc1ccc([C@@H]2CN(C(C)(C)C)C[C@@]2(F)C(=O)N2CCC(c3ccc(C(F)(F)F)cc3-c3ccc(C(=O)O)cc3)CC2)cc1 [Example 77] | 69 nM | 83% | –
11 | COc1ccc([C@@H]2CN(C(C)(C)C)C[C@@]2(F)C(=O)N2CCC(c3ccc(C(F)(F)F)cc3N3CCC(C(=O)N(C)C)CC3)CC2)cc1 [Example 234] | 7.3 nM | 105% | –
12 | COc1ccc([C@@H]2CN(C3CCN(C(CF)CF)CC3)C[C@@]2(F)C(=O)N2CCC(c3ccc(C(F)(F)F)cc3N3CCC(C(=O)O)CC3)CC2)cc1 [Example 193] | 17 nM | 103% | –
13 | COC[C@H]1CN(C(=O)[C@]2(F)CN(C3CCCC3)C[C@H]2c2ccc(OC)cc2)C[C@@H]1c1ccc(C(F)(F)F)cc1N1CCC(C(=O)N(C)CC(=O)O)CC1 [Example 269] | 6.7 nM | 73% | –
14 | COc1ccc([C@@H]2CN(C(C)(C)C)C[C@@]2(F)C(=O)N2CCC(c3ccc(C(F)(F)F)cc3N3CCC(C(=O)O)CC3)CC2)c(F)c1 [Example 75] | 57 nM | 111% | –
15 | COc1ccc([C@@H]2CN(C(C)(C)C)C[C@@]2(F)C(=O)N2CCC(c3ccc(C(F)(F)F)cc3N3CCNCC3)CC2)cc1 [Example 281, [(3R,4R)-1-tert-butyl-3-fluoro-4-(4-methoxyphenyl)pyrrolidin-3-yl]{4-[2-(piperazin-1-yl)-4-(trifluoromethyl)phenyl]piperidin-1-yl}methanone] | 19 nM | 72% | –
16 | COC[C@H]1CN(C(=O)[C@]2(F)CN(C3CCCC3)C[C@H]2c2ccc(OC)cc2)C[C@@H]1c1cc(F)c(F)cc1N1CCC(C(=O)O)CC1 [Example 201] | 31 nM | 107% | –
17 | CCO[C@H]1CC[C@H](N2C[C@@H](c3ccc(OC)cc3)[C@](OC)(C(=O)N3C[C@H](c4ccc(C(F)(F)F)cc4N4CCC(C(=O)O)CC4)[C@@](F)(COC)C3)C2)CC1 [Example 141] | 3.6 nM | 105% | –
